Reference: ChEMBL document CHEMBL1201862, “PubChem BioAssay data set” (2004)
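Compound exposure: 48 hours, 5 concentrations, 96-well plates. Here, GI50 denotes the concentration required for 50% inhibition of growth.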 The source made the active and inactive calls. No stated cut-off is given here; in the data, active = GI50 up to about 1.1 µM and inactive = higher.

Tests used:
Test in all cases: NCI tumour cell line growth inhibition, 48 h
NCI-H23 = test system: NCI-H23
ACHN = test system: ACHN
BT-549 = test system: BT-549
UACC-62 = test system: UACC-62
MOLT-4 = test system: MOLT-4
KM12 = test system: KM12
SF-268 = test system: SF-268
HCT-116 = test system: HCT-116
OVCAR-4 = test system: OVCAR-4
HL-60 = test system: HL-60
Malme-3M = test system: Malme-3M
A498 = test system: A498
T47D = test system: T47D
HCC 2998 = test system: HCC 2998
MDA-N = test system: MDA-N
EKVX = test system: EKVX
OVCAR-8 = test system: OVCAR-8
HCT-15 = test system: HCT-15
786-0 = test system: 786-0
NCI-H460 = test system: NCI-H460
Hs-578T = test system: Hs-578T
SK-OV-3 = test system: SK-OV-3
LOX IMVI = test system: LOX IMVI
SNB-75 = test system: SNB-75
MCF7 = test system: MCF7
IGROV-1 = test system: IGROV-1
HOP-92 = test system: HOP-92
CAKI-1 = test system: CAKI-1
M14 = test system: M14
UACC-257 = test system: UACC-257
HOP-62 = test system: HOP-62
K562 = test system: K562
A549 = test system: A549
NCI-H522 = test system: NCI-H522
U-251 = test system: U-251
SR = test system: SR
OVCAR-3 = test system: OVCAR-3
HT-29 = test system: HT-29
SW-620 = test system: SW-620
SF-539 = test system: SF-539
CCRF-CEM = test system: CCRF-CEM
RXF 393 = test system: RXF 393
NCI-H226 = test system: NCI-H226
SK-MEL-28 = test system: SK-MEL-28
DU-145 = test system: DU-145
SNB-19 = test system: SNB-19
MDA-MB-231 = test system: MDA-MB-231
RPMI-8226 = test system: RPMI-8226
TK-10 = test system: TK-10
PC-3 = test system: PC-3
NCI/ADR-RES = test system: NCI/ADR-RES
OVCAR-5 = test system: OVCAR-5
UO-31 = test system: UO-31
SK-MEL-5 = test system: SK-MEL-5
SF-295 = test system: SF-295
SN12C = test system: SN12C
SK-MEL-2 = test system: SK-MEL-2
COLO 205 = test system: COLO 205
MDA-MB-435 = test system: MDA-MB-435

## CC(C)/C(Cl)=N\OC(=O)Nc1cccc(F)c1
NCI-H23
  GI50: 15.9 µM (inactive)
ACHN
  GI50: 14.6 µM (inactive)
BT-549
  GI50: 2.66 µM (inactive)
UACC-62
  GI50: 20.4 µM (inactive)
MOLT-4
  GI50: 2.28 µM (inactive)
KM12
  GI50: 12.1 µM (inactive)
SF-268
  GI50: 19.6 µM (inactive)
HCT-116
  GI50: 16.1 µM (inactive)
OVCAR-4
  GI50: 11.7 µM (inactive)
HL-60
  GI50: 1.96 µM (inactive)
Malme-3M
  GI50: 6.24 µM (inactive)
A498
  GI50: 12.9 µM (inactive)
T47D
  GI50: 24.8 µM (inactive)
HCC 2998
  GI50: 19.3 µM (inactive)
MDA-N
  GI50: 15.4 µM (inactive)
EKVX
  GI50: 16.7 µM (inactive)
OVCAR-8
  GI50: 17 µM (inactive)
HCT-15
  GI50: 15.8 µM
786-0
  GI50: 16 µM (inactive)
NCI-H460
  GI50: 27.4 µM (inactive)
Hs-578T
  GI50: 26.5 µM (inactive)
SK-OV-3
  GI50: 19.7 µM (inactive)
LOX IMVI
  GI50: 2.14 µM (inactive)
SNB-75
  GI50: 22.6 µM (inactive)
MCF7
  GI50: 11 µM (inactive)
IGROV-1
  GI50: 18.6 µM (inactive)
HOP-92
  GI50: 1.46 µM (inactive)
CAKI-1
  GI50: 16 µM (inactive)
M14
  GI50: 0.933 µM (active)
UACC-257
  GI50: 15.8 µM (inactive)
HOP-62
  GI50: > 31.6 µM (inactive)
K562
  GI50: 2.19 µM (inactive)
A549
  GI50: 17.5 µM (inactive)
NCI-H522
  GI50: 1.49 µM (inactive)
U-251
  GI50: 17.2 µM (inactive)
SR
  GI50: 2.35 µM (inactive)
OVCAR-3
  GI50: 17 µM (inactive)
HT-29
  GI50: 18.3 µM (inactive)
SW-620
  GI50: 2.23 µM (inactive)
SF-539
  GI50: 18.6 µM (inactive)
CCRF-CEM
  GI50: 1.9 µM (inactive)
RXF 393
  GI50: 17.1 µM (inactive)
NCI-H226
  GI50: 17.2 µM (inactive)
SK-MEL-28
  GI50: 16.2 µM (inactive)
DU-145
  GI50: 18.4 µM (inactive)
SNB-19
  GI50: > 100 µM (inactive)
MDA-MB-231
  GI50: 16.9 µM (inactive)
RPMI-8226
  GI50: 4.34 µM (inactive)
TK-10
  GI50: 14.8 µM (inactive)
PC-3
  GI50: 16.4 µM (inactive)
NCI/ADR-RES
  GI50: 17.1 µM (inactive)
OVCAR-5
  GI50: 17.7 µM (inactive)
UO-31
  GI50: 18.6 µM (inactive)
SK-MEL-5
  GI50: 15 µM (inactive)
SF-295
  GI50: 32.9 µM (inactive)
SN12C
  GI50: 16.5 µM (inactive)
SK-MEL-2
  GI50: 7.76 µM (inactive)
COLO 205
  GI50: 2.44 µM (inactive)

## CC(=O)O[C@@H]1CC[C@@]2(C)C(CC[C@H]3[C@@H]4CC[C@H]([C@H](C)CCc5nc6cc(C)ccc6[nH]5)[C@@]4(C)CC[C@@H]32)C1 (some centres not stated)
NCI-H23
  GI50: 17.3 µM (inactive)
ACHN
  GI50: 99.3 µM (inactive)
BT-549
  GI50: 29.8 µM (inactive)
UACC-62
  GI50: 11.5 µM (inactive)
MDA-MB-435
  GI50: > 100 µM (inactive)
MOLT-4
  GI50: 28.1 µM (inactive)
KM12
  GI50: 12.7 µM (inactive)
SF-268
  GI50: > 100 µM (inactive)
HCT-116
  GI50: > 100 µM (inactive)
OVCAR-4
  GI50: 9.77 µM (inactive)
A498
  GI50: 92.7 µM (inactive)
T47D
  GI50: 0.0352 µM (active)
HCC 2998
  GI50: 71.3 µM (inactive)
EKVX
  GI50: 9.64 µM (inactive)
OVCAR-8
  GI50: 11 µM (inactive)
HCT-15
  GI50: 46.6 µM
786-0
  GI50: 8.69 µM (inactive)
Hs-578T
  GI50: 13.9 µM (inactive)
SK-OV-3
  GI50: > 100 µM (inactive)
LOX IMVI
  GI50: 1.66 µM (inactive)
SNB-75
  GI50: 6.04 µM (inactive)
MCF7
  GI50: 38.4 µM (inactive)
IGROV-1
  GI50: 4.34 µM (inactive)
HOP-92
  GI50: 69.5 µM (inactive)
CAKI-1
  GI50: > 100 µM (inactive)
M14
  GI50: 16.1 µM (inactive)
UACC-257
  GI50: 38.7 µM (inactive)
HOP-62
  GI50: 13.1 µM (inactive)
K562
  GI50: 12.6 µM (inactive)
A549
  GI50: 43.4 µM (inactive)
NCI-H522
  GI50: 16.7 µM (inactive)
U-251
  GI50: 18.2 µM (inactive)
OVCAR-3
  GI50: 20.9 µM (inactive)
HT-29
  GI50: 12.4 µM (inactive)
SW-620
  GI50: > 100 µM (inactive)
SF-539
  GI50: > 100 µM (inactive)
CCRF-CEM
  GI50: 3.44 µM (inactive)
RXF 393
  GI50: 6.81 µM (inactive)
NCI-H226
  GI50: 9.38 µM (inactive)
SK-MEL-28
  GI50: > 100 µM (inactive)
DU-145
  GI50: 45.7 µM (inactive)
SNB-19
  GI50: > 100 µM (inactive)
MDA-MB-231
  GI50: 18 µM (inactive)
RPMI-8226
  GI50: 8.89 µM (inactive)
TK-10
  GI50: > 100 µM (inactive)
PC-3
  GI50: 9.53 µM (inactive)
NCI/ADR-RES
  GI50: 97.3 µM (inactive)
OVCAR-5
  GI50: > 100 µM (inactive)
UO-31
  GI50: 6.38 µM (inactive)
SK-MEL-5
  GI50: 25.9 µM (inactive)
SF-295
  GI50: 12 µM (inactive)
SN12C
  GI50: 41.5 µM (inactive)
SK-MEL-2
  GI50: 31 µM (inactive)
COLO 205
  GI50: 24.4 µM (inactive)
